In ChEMBL document CHEMBL1137583 (Bioorg Med Chem Lett, 2007) one finds Ki, AUC(0-t) and inhibition in vivo data, which are given here for eleven compounds.

The target in data set [1] is Melanin-concentrating hormone receptor 1 (Homo sapiens, UniProt Q99705). Nature of the data set: Inhibition of 125I-MCH binding to human MCH-R1 expressed in CHO cell membranes.
A short description of data set [2]: AUC (0-6hr) in rats following 10 mg/kg peroral dose. The class given is ADME, organism-based. Further details: time < 6 hr, dose 10 mg/kg, route oral. Conditions: rat, plasma, po.
The subject of data set [3] is Mus musculus. Nature of the data set: Inhibition of ex vivo MCH-R1 binding following 30 mg/kg peroral dose in mice after 6hr. Format: functional. Conditions: route oral.

Chain of Melanin-concentrating hormone receptor 1 (Q99705 whole entry): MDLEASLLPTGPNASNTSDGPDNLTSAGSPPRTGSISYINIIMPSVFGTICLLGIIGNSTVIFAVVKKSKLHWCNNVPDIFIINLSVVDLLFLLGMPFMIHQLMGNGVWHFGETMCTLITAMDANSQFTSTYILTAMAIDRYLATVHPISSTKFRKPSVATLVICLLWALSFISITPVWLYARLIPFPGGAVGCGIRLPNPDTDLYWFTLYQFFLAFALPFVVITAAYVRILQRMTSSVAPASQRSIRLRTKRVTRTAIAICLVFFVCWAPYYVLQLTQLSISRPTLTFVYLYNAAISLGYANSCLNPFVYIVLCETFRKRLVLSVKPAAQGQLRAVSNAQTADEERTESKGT

For the compound `CN1CCN(CCCN(C(=O)Nc2ccc(F)c(Cl)c2)C2CCc3cc(C#N)ccc3C2)CC1` (centres undefined), the inhibition constant Ki in data set [1] came out at 340 nM. This lies in the sub-micromolar range.

As for `CN1CCN(CCCN(C(=O)Nc2ccc(F)c(Cl)c2)[C@@H]2CC[C@]3(c4cccc(C#N)c4)C[C@@H]3C2)CC1`, the affinity in data set [1], expressed as Ki, was 4 nM. In data set [1], `CN1CCN(CCCN(C(=O)Nc2ccc(F)c(Cl)c2)C2CCc3ccc(S(=O)(=O)N(C)C)cc3C2)CC1` (centres undefined) had a Ki of 3000 nM. On the same count and under the same terms, under `CN1CCN(CCCN(C(=O)Nc2ccc(F)c(Cl)c2)C2CCc3ccc(S(C)(=O)=O)cc3C2)CC1` (centres undefined) stands 1300 nM. In turn, `COc1ccc2c(c1)CCC(N(CCCN1CCN(C)CC1)C(=O)Nc1ccc(F)c(Cl)c1)C2` (centres undefined) showed an inhibition constant (Ki) in data set [1] of 190 nM. In the case of `CN1CCN(CCCN(C(=O)Nc2ccc(F)c(Cl)c2)C2CCc3ccccc3C2)CC1` (centres undefined), the affinity in data set [1], expressed as Ki, was 380 nM. This Ki is about 2-fold higher than that of the compound before.

Compound `CC(=O)Nc1ccc2c(c1)CC(N(CCCN1CCN(C)CC1)C(=O)Nc1ccc(F)c(Cl)c1)CC2` (centres undefined) gave an AUC(0-t) at 6 h in data set [2] of 195 ng·h/mL. The inhibition in vivo at 30 mg/kg in data set [3] came to 23%. Consider `CNS(=O)(=O)c1ccc2c(c1)CC(N(CCCN1CCN(C)CC1)C(=O)Nc1ccc(F)c(Cl)c1)CC2` (centres undefined), for which affinity in data set [1] was put at a Ki of 3000 nM. As to `CN1CCN(CCCN(C(=O)Nc2ccc(F)c(Cl)c2)C2CCc3ccc(C#N)cc3C2)CC1` (centres undefined), in data set [1], the inhibitory constant (Ki) is 8.5 nM. Also, the AUC(0-t) at 6 h in data set [2] worked out at 642 ng·h/mL. The inhibition in vivo at 30 mg/kg in data set [3] was found to be 84%.

On to `CCNC(=O)Nc1ccc2c(c1)CC(N(CCCN1CCN(C)CC1)C(=O)Nc1ccc(F)c(Cl)c1)CC2` (centres undefined), for which the affinity in data set [1], expressed as Ki, was 160 nM. In the case of `CN1CCN(CCCN(C(=O)Nc2ccc(F)c(Cl)c2)C2CCc3ccc(N)cc3C2)CC1` (centres undefined), the Ki in data set [1] is 260 nM.

By Ki is commonly meant a measure of affinity in units of concentration, obtained from inhibition or displacement. A word on the AUC(0-t): it is exposure summed from dosing to a finite time, without extrapolation to infinity. High values mean high exposure, low ones low exposure. As usually defined, the inhibition in vivo is the change of the read-out against control, counted positive when it falls. The low end stands for little suppression, the high end for strong suppression.
